This is an account of results in US12171754B2, “Combinational uses of nitroxoline and its analogues with chemotherapies and immunotherapies in the treatment of cancers” (Jiangsu Yahong Meditech Co., Ltd., priority 2016, dated 2024).

The subject of test [1] is human bladder cancer cell line 5637. As to the kind of experiment: MTT assay, inhibition of cell growth (single drugs and combinations with NIT; CI by Chou's method). Conditions: for IC25 / IC75: 5637; for Average Fa: 96 hours. In kind it is cell-based. As for the experimental part: (§1) The combinational studies of NIT and chemotherapies were conducted by mixing NIT with individual chemotherapies at five to seven concentration levels, with the medium concentration levels close to their IC50 values. The combinational indices (CIs) were calculated and plotted according to Ting-Chao Chou's method (19) to estimate the combinational effects, including synergism, addition and antagonism.
(§2) Compounds: NIT, carboplatin, paclitaxel, epirubicin and pirarubicin were purchased from suppliers, and were dissolved in the DMSO to stock solution and store in −20° C. Before use, the stock solutions were diluted to different concentrations of working solutions. The DMSO concentration in working solutions was less than 1%. All cancer cell lines were purchased from vendors.
(§3) An MTT assay was used as the test method. An appropriate amount of cells (2×10^3/100 μL) was seeded into 96-well plate and incubated at 37° C. in a CO2 incubator overnight for cell adhesion and adaptation. Cancer cells were also seeded in a separate 96-well plate (plate T0), 12 wells/cell line, to measure the OD value at time zero (T0). After overnight adaptation, 20 μL MTT reagent were added per well (final concentration 0.5 mg/mL) to plate T0 and incubated at 37° C. for 4 hours. The supernatant medium was pipetted out, and about 150 μL DMSO were added per well. The plate was read on a plate reader using 550 nm as the test wavelength and 630 nm as the reference wavelength to obtain the OD value at time zero (T0). After overnight adaptation, the test compounds and vehicle were added into the plate to treat the cells. The test compounds were tested at 6 concentrations in triplicate wells. The plate was incubated at 37° C. in a CO2 incubator for 48 h. A longer incubation time can be used. 20 μL MTT reagent were added per well and incubated at 37° C. for 4 h. the supernatant medium was pipetted out, and about 150 μL DMSO were added per well. The plate was read on a plate reader (TECAN, Infinite M200) using about […] as the test wavelength and about […] as the reference wavelength. Cell viability (%) was calculated in two ways: % Viability=[(T−B)/(C−B)]×100% % Viability=[(T−C0)/(C−C0)]×100%
(§4) T: Mean Absorbance of Treatment at various hours;
(§5) C: Mean Absorbance of negative Control at various hours;
(§6) B: Mean Absorbance of blank well (only culture medium) at various hours;
(§7) C0: Mean Absorbance of negative Control at 0 h.
(§8) The results are expressed as mean±SD. The IC50 was calculated by XLfit software. The test for each compound was independently repeated once.
For orientation: Formazan colour is commonly taken as a measure of viable cells.

The test system of test [2] is human liver cancer cell line HepG2. The test is described as above. In kind it is cell-based. On the procedure:
as §1, §2, §3, §4, §5, §6, §7, §8

The subject of test [3] is MBT-2-Luc bladder cancer. The test can be described thus: Oral NIT with intravesical MMC in orthotopic mouse MBT-2-Luc bladder cancer model. Conditions: NIT 15 mg/kg Bid oral, MMC 1 mg/ml Q7d intravesical, single drug or actual observed value of combination; for Survival Proportion: end of the experiment (45 days).
Experimental: The tumor volume was analyzed by the Xenogen IVIS200 system following the indicated treatment. […] The tumor volume of each mouse was determined by region-of-interest analysis of total photons per second. Six mice were analyzed in each group.
To establish the orthotopic bladder cancer tumors, the mice were anesthetized by the intraperitoneal (i.p.) administration of ketamine/xylazine solution at a dose of 0.1 ml/10 g body weight (K113; Sigma-Aldrich Japan G.K., Tokyo, Japan). A 24-gauge Teflon intravenous catheter was subsequently inserted through the urethra into the bladder or prostate using an inert lubricant. In order to prepare the bladder for tumor implantation, a brief acid exposure, followed by alkaline neutralization, promoted a chemical lesion on the bladder wall, performed by the intravesical instillation of 8 μl 1 MOI silver nitrate. This led to the formation of an adequate and controlled diffuse bladder wall lesion. After 15 sec, the content was washed out by transurethral infusion of PBS. The first catheter was removed and a new 24-gauge catheter was inserted in the urethra for intravesical instillation of MBT-2-Luc cells (5×10^4 cells mixed with 0.1 ml PBS) and retained for 1.5 h by stitches. Every 10 days, tumor imaging was performed following i.p. administration of luciferin using bioluminescence technology (Xenogen IVIS200 system; Xenogen Corporation, Hopkinton, Mass., USA).
For the NIT and MMC combination, the mice carrying orthotopic bladder cancer tumors were randomly divided into four groups: control (PBS), NIT, MMC, and the combination of NIT and MMC.
(§9) The mice received i.p. injections of luciferin, and the luciferase expression in the tumors was measured by the Xenogen IVIS200 System.
Additivity was determined using the fractional product concept or Bliss Independence model: Exy=Ex+Ey−(ExEy), where EXY is the additive effect of the 2 compounds x and y as calculated by the product of the individual effect of the 2 compounds, Ex and Ey. Synergy was established when the actual observed tumor inhibition value was greater than the expected tumor inhibition value determined by the Bliss Independence model (20).
For test [4], the system named is MBT-2-Luc bladder cancer. Also on record: concentration or dose not given beside the values. Particulars: mouse, in vivo.
In a further test the test system is RM-9-Luc prostate cancer. As to the kind of experiment: Oral NIT with intraperitoneal anti-PD-1 antibody in orthotopic mouse RM-9-Luc prostate cancer model. The format is in vivo. As for the experimental part: Eight mice were analyzed for each group.
A low abdominal transverse incision was made, and the bilateral dorsal lobes of prostate were exposed. Following the trypsinization of RM-9-Luc cells, 5.0×10^3 cells in 10 μl of Hanks' balanced salt solution were injected using a new 24-gauge catheter directly into the right dorsal lobe of the prostate. A clearly recognizable bleb within the injected prostatic lobe was considered as a sign of a technically satisfactory injection. The abdominal wound was closed with stainless steel clips (Autoclip; Becton Dickinson Co., Sparks, Md.).

The test system of test [5] is MBT-2-Luc bladder cancer. As to the kind of experiment: Oral NIT with intraperitoneal anti-PD-1 antibody in orthotopic mouse MBT-2-Luc bladder cancer model.
Experimental: The tumor volume of each mouse was determined by region-of-interest analysis of total photons per second. Five mice were analyzed in each group.
To establish the orthotopic bladder cancer tumors, the mice were anesthetized by the intraperitoneal (i.p.) administration of ketamine/xylazine solution at a dose of 0.1 ml/10 g body weight (K113; Sigma-Aldrich Japan G.K., Tokyo, Japan). A 24-gauge Teflon intravenous catheter was subsequently inserted through the urethra into the bladder or prostate using an inert lubricant. In order to prepare the bladder for tumor implantation, a brief acid exposure, followed by alkaline neutralization, promoted a chemical lesion on the bladder wall, performed by the intravesical instillation of 8 μl 1 MOI silver nitrate. This led to the formation of an adequate and controlled diffuse bladder wall lesion. After 15 sec, the content was washed out by transurethral infusion of PBS. […]
as §9
Additivity was determined using the fractional product concept or Bliss Independence model: Exy=Ex+Ey−(ExEy), where EXY is the additive effect of the 2 compounds x and y as calculated by the product of the individual effect of the 2 compounds, Ex and Ey.
[6] abbreviates: Homo sapiens, inhibition of cell growth, 5637 (Table 9), read-out: IC50.
Setting [7] is: Homo sapiens, cell line 5637, read-out: IC50 for inhibition of cell growth.

Structures are written as SMILES. Several values for one entry are separate records, joined by “and”; a condition that tells them apart may be missing. Identical values can stand only once. Like-named read-outs stand apart in the source and are kept apart here.

Regarding `N.N.O=C([O-])C1(C(=O)[O-])CCC1.[Pt+2]` [Carboplatin, carboplatin], the “Inhibition Rates” value in test [1] (Carbo 0.5 μg/ml, 120 hours) is given as 31.5%; in test [1] (Carbo 1 μg/ml, 120 hours), 53.7%; in test [1] (Carbo 2 μg/ml, 120 hours) it was 69.9%; in test [1] (Carbo 4 μg/ml, 120 hours), 88.1%; in test [1] (Carbo 8 μg/ml, 120 hours) it was 91.5%; in test [2] (Carbo 4 μg/ml, 120 hours) it was 38.9%. Further, the “Inhibition Rates” value is reported as 70.7% in test [2] (Carbo 8 μg/ml, 120 hours); 85.2% in test [2] (Carbo 16 μg/ml, 120 hours); 89.1% in test [2] (Carbo 32 μg/ml, 120 hours); 93.0% in test [2] (Carbo 64 μg/ml, 120 hours); 93.9% in test [2] (Carbo 128 μg/ml, 120 hours). The “IC50 for inhibition of cell growth” value was determined as 0.917 µg/mL in test [1] (cell line 5637) and 3.687 µg/mL in test [2] (cell line HepG2).
Take `COc1cccc2c1C(=O)c1c(O)c3c(c(O)c1C2=O)C[C@@](O)(C(=O)CO)C[C@@H]3O[C@H]1C[C@H](N)[C@@H](O)[C@H](C)O1` [Epirubicin, epirubicin]: the half-inhibitory concentration (IC50) in test [1] (setting [6]) was 0.0452 µg/mL. In addition, in test [1] (inhibition of cell growth), the IC25 was 0.03497 µg/mL and the IC75 amounted to 0.06393 µg/mL.
As for `CO[C@@]12[C@H](COC(N)=O)C3=C(C(=O)C(C)=C(N)C3=O)N1C[C@@H]1N[C@@H]12` [Mitomycin C, mitomycin C], the “Average Fa” value was 1.6% in test [1] (NIT 0, Mitomycin C 3.13 (units not given)); 27.7% in test [1] (NIT 0, Mitomycin C 12.5 (units not given)); 77.9% in test [1] (NIT 0, Mitomycin C 50 (units not given)); 79.4% in test [1] (NIT 0, Mitomycin C 200 (units not given)). Further, the concentration for an effect of 25% (IC25) in test [1] (inhibition of cell growth) was 0.04836 µg/mL. Moreover, the concentration for an effect of 75% (IC75) in test [1] (inhibition of cell growth) is 0.53662 µg/mL. Further, in test [1] (inhibition of cell growth, 5637 (Table 9)), the half-maximal inhibitory concentration (IC50) is 0.15253 µg/mL. Besides, the “Tumor Growth Inhibition” value in the test with MBT-2-Luc bladder cancer [3] stood at 0.56. In addition, the “Survival Proportion” value in the test on MBT-2-Luc bladder cancer [3] was 0.57.
As to `O=[N+]([O-])c1ccc(O)c2ncccc12` [NIT, Nitroxoline], the inhibition at 0.25 µg/mL in test [1] (Homo sapiens, NIT 0.25 μg/ml, 120 hours, read-out: Inhibition Rates) turned out to be 18%. Further, the inhibition at 0.5 µg/mL in test [1] (Homo sapiens, NIT 0.5 μg/ml, 120 hours, read-out: Inhibition Rates) amounted to 52%; in test [2] (Homo sapiens, HepG2, NIT 0.5 μg/ml, 120 hours, read-out: Inhibition Rates) it was 3.2%. In addition, the inhibition at 1 µg/mL in test [1] (Homo sapiens, NIT 1 μg/ml, 120 hours, read-out: Inhibition Rates) was determined as 79.9%; in test [2] (Homo sapiens, HepG2, NIT 1 μg/ml, 120 hours, read-out: Inhibition Rates), 21.7%. Further, the inhibition at 2 µg/mL in test [1] (Homo sapiens, NIT 2 μg/ml, 120 hours, read-out: Inhibition Rates) is 92.3%; in test [2] (Homo sapiens, HepG2, NIT 2 μg/ml, 120 hours, read-out: Inhibition Rates), 80.3%. The inhibition at 4 µg/mL in test [1] (Homo sapiens, NIT 4 μg/ml, 120 hours, read-out: Inhibition Rates) came to 95.5%; in test [2] (Homo sapiens, HepG2, NIT 4 μg/ml, 120 hours, read-out: Inhibition Rates), 90.5%. Also, the IC50 came out at 0.517 µg/mL in test [1] (setting [7]) and 1.86 µg/mL in test [2] (Homo sapiens, cell line HepG2). The “Average Fa” value in test [1] (NIT 625, Mitomycin C 0 (units not given)) is −7.2%; in test [1] (NIT 1250, Mitomycin C 0 (units not given)) it was −3.8%; in test [1] (NIT 2500, Mitomycin C 0 (units not given)) it was 23.3%; in test [1] (NIT 5000, Mitomycin C 0 (units not given)), 74.3%; in test [1] (NIT 10000, Mitomycin C 0 (units not given)), 94.0%. For the same compound, the inhibition at 8 µg/mL in test [2] (Homo sapiens, HepG2, NIT 8 μg/ml, 120 hours, read-out: Inhibition Rates) was 93.5%. For the same compound, in test [2] (Homo sapiens, HepG2, NIT 16 μg/ml, 120 hours, read-out: Inhibition Rates), the inhibition at 16 µg/mL came out at 95.3%. Besides, the “Survival Proportion” value was determined as 0.4 with MBT-2-Luc bladder cancer [4] and 0.33 with MBT-2-Luc bladder cancer [3]. The “Tumor Growth Inhibition” value was 0.52 and 0.35 with MBT-2-Luc bladder cancer [4]; 0.52 in the test with RM-9-Luc prostate cancer (tumor volume, NIT 15 mg/kg bid p.o., anti-PD-1 10 mg/kg q4d intraperitoneal, single drug or actual observed value of combination); 0.33 with MBT-2-Luc bladder cancer [3]; 0.31 in the test on MBT-2-Luc bladder cancer [5] (NIT 15 mg/kg bid p.o., anti-PD-1 10 mg/kg q5d intraperitoneal, single drug or actual observed value of combination). In the test on RM-9-Luc prostate cancer (NIT 15 mg/kg bid p.o., anti-PD-1 10 mg/kg q4d intraperitoneal, single drug or actual observed value of combination), the “Tumor Weight Proportion” value came to 0.37. Also, the “tumor growth inhibition rate” value in the test with RM-9-Luc prostate cancer (tumor volume, FIG. 12B, NIT 15 mg/kg oral, anti-PD-1 10 mg/kg intraperitoneal) stood at 52%. For the same compound, the “tumor inhibition by tumor weight” value in the test with RM-9-Luc prostate cancer (tumor weight, FIG. 12D, NIT 15 mg/kg oral, anti-PD-1 10 mg/kg intraperitoneal) worked out at 37%. Further, the tumor inhibition rate in the test on MBT-2-Luc bladder cancer [5] (NIT 15 mg/kg oral, anti-PD-1 10 mg/kg intraperitoneal, FIG. 11B) was found to be 31%.
With `CC(=O)O[C@H]1C(=O)[C@@]2(C)[C@H]([C@H](OC(=O)c3ccccc3)[C@]3(O)C[C@H](OC(=O)[C@H](O)[C@@H](NC(=O)c4ccccc4)c4ccccc4)C(C)=C1C3(C)C)[C@]1(OC(C)=O)CO[C@@H]1C[C@@H]2O` [Paclitaxel, paclitaxel], the 50% inhibitory concentration (IC50) in test [1] (setting [7]) is 0.000289 µg/mL; in test [2] (Homo sapiens, cell line HepG2), 0.0025 µg/mL. The “Inhibition Rates” value came to 11.9% in test [1] (Taxol 0.125 ng/ml, 112 hours); 47.6% in test [1] (Taxol 0.25 ng/ml, 112 hours); 84.3% in test [1] (Taxol 0.5 ng/ml, 112 hours); 90.3% in test [1] (Taxol 1 ng/ml, 112 hours); 96.8% in test [1] (Taxol 2 ng/ml, 112 hours); 5.8% in test [2] (Taxol 0.5 ng/ml, 112 hours). Besides, the “Inhibition Rates” value in test [2] (Taxol 1 ng/ml, 112 hours) is listed as 14.0%; in test [2] (Taxol 2 ng/ml, 112 hours), 47.5%; in test [2] (Taxol 4 ng/ml, 112 hours) it was 75.8%; in test [2] (Taxol 8 ng/ml, 112 hours), 90.4%; in test [2] (Taxol 16 ng/ml, 112 hours), 92.7%.
`COc1cccc2c1C(=O)c1c(O)c3c(c(O)c1C2=O)C[C@@](O)(C(=O)CO)C[C@@H]3O[C@H]1C[C@H](N)[C@H](O[C@@H]2CCCCO2)[C@H](C)O1` [Pirarubicin, pirarubicin]: the IC50 in test [1] (setting [6]) is 0.143 µg/mL. Moreover, in test [1] (inhibition of cell growth), the 25% effect concentration (IC25) worked out at 0.09658 µg/mL and the concentration for an effect of 75% (IC75) stood at 0.21958 µg/mL.

As usually defined, the IC50 is the concentration needed to halve the response being measured. The IC25 is the point of the concentration-response curve where the effect stands at 25%. By IC75 is commonly meant the concentration needed for an effect of 75%. By inhibition is commonly meant how much of the control response was suppressed.
